# In patent US12021195B2, “Asymmetric electrolyte salts and batteries incorporating such salts” (OHIO STATE INNOVATION FOUNDATION, priority 2019, dated 2024):
# Where two headings read alike, the source gives them in different places.
# Experiments:
# [1] = Ionic conductivity measurements; assay type: physicochemical
# Protocol: Ionic Conductivity Measurements A homemade conductivity cell was constructed with two polished stainless steel parallel plates (˜0.3 cm^2) separated by ˜0.2 cm in a Teflon cup. The entire cell was placed in a sealed vial to minimize electrolyte evaporation. To calibrate the cell constant, two conductivity standards (Sigma Aldrich) were used, 25 and […]. The calibrated cell constant was calculated to be 0.706 cm′±0.008 cm^−1. […] […] The electrochemical impedance spectrum was collected from 1 MHz to 0.5 Hz with an AC amplitude of 10 mV. The electrolyte resistance was taken as the impedance where the phase angle is as close to […] as possible in order to minimize any contribution from capacitance or inductance. All conductivity measurements were performed in an argon filled glove box.
# [2] = Solubility of potassium salts in DME; settings: mol fraction of salt
# [3] = Cyclic voltammetry, oxidative stability window in diglyme
# Protocol: The counter electrode was lithium metal. […] The scan rate for each CV measurement was 50 mV/s. The Al dissolution resistance was measured by cyclic voltammetry of a 2-electrode Li∥Al CR2032 coin cell. The potential was swept from 2 V to 6.1 V for a total of 5 cycles. The cell consisted of Li foil and aluminum foil (1.77 cm^2) separated by a 25 μm trilayer celgard membrane (polypropylene-polyethylene-polypropylene).
# Since it has been reported that increasing the salt concentration also improves the electrochemical window,^103,107 the stability window of each electrolyte at its highest concentration was examined. In a 3-electrode cell using a platinum working electrode, Li metal counter and a silver wire reference to avoid electrolyte contamination, cyclic voltammetry was used to examine the oxidative window. Multiple scans were collected to see if there was any change with repeat cycling to highly positive voltages (FIG. 5). As a comparison, the most concentrated possible LiTFSI solution (0.2 mol fraction) was also tested.
# [4] = Solubility of lithium salts in diglyme; assay type: physicochemical
# Text: In order to probe structure-property relationships among sulfonamide salts, the ionic conductivity was investigated in diglyme solvent and compared with that of LiTFSI. Ethers such as diglyme have strong Lewis basicity, high chemical stability and can dissolve lithium salts via Li+ cation coordination by the lone pair on the oxygen atom.^105 However, the solubility of LiTFSI is relativity low and cannot access the concentrated electrolyte regime. This is in stark contrast to all of the sulfonamide salts investigated here. The solubility of the salts increase in the order LiTFSI<LiMPSA<LiFBSA≈LiFPSA≈LiDESA. To the best of the inventors' knowledge, in ether solvent, these sulfonamide salts have the highest solubility among any lithium salt (0.4× salt, molar ratio diglyme: Salt […]). The ionic conductivity of these electrolytes were investigated as a function of concentration (FIG. 4). The sulfonamide based electrolytes span a much larger concentration range of up to 0.4 mol fraction, where LiTFSI can only be increased up to 0.2 mol fraction. […] This could be due to reduced viscosity of the electrolytes with fluorinated derivatives as well as the ability of the ether oxygen within LiMPSA and LiDESA to coordinate the lithium cation even at low concentrations in a similar fashion to that of diglyme solvent. […]
compound,measurement,setting,value
COCCC[N-]S(=O)(=O)C(F)(F)F.[K+] [KMPSA],ionic conductivity,"[1]; 0.6× KMPSA/DME electrolyte, 25° C.",0.037 mS/cm
same,ionic conductivity,"[1]; molten salt, 45° C.",0.003 mS/cm
same,solubility (mol fraction that can be reached),[2],0.6 X
"O=S(=O)([N-]S(=O)(=O)C(F)(F)F)C(F)(F)F.[K+] [KTFSI, potassium bis(trifluoromethanesulfonyl)imide, reference compound]",solubility (mol fraction that can be reached),[2],~0.34 X
O=S(=O)([N-]CC(F)(F)C(F)(F)F)C(F)(F)F.[Li+] [LiFPSA],oxidative stability window (in words),[3],smallest stability window
same,ionic conductivity compared with salts with an incorporated ether group,[1]; in diglyme,higher ionic conductivity
COCCC[N-]S(=O)(=O)C(F)(F)F.[Li+] [LiMPSA],oxidative stability window (in words),[3],one of the highest stabilities
same,potential out to which cycles after the first show high stability,[3],6-7 V
"O=S(=O)([N-]S(=O)(=O)C(F)(F)F)C(F)(F)F.[Li+] [LiTFSI, lithium bis(trifluoromethanesulfonyl)imide, reference compound]",potential above which rapid decomposition occurs,"[3]; 0.2 mol fraction in diglyme, Pt working electrode, 50 mV/s",above 5 V
same,oxidative stability window (in words),"[3]; each electrolyte at its highest concentration in diglyme (LiTFSI 0.2, LiFPSA 0.4, LiDESA 0.4, LiMPSA 0.33 mol fraction)",one of the lowest stabilities
same,solubility (highest concentration reached),[4],up to 0.2 mol fraction
